Measured values published in US5665555A, “Method of determining the effect of a test substance on a clone of a Centroptilum triangulifer mayfly” (priority 1993, dated 1997).
Entries after “also recorded” stand apart in the source; their conditions may differ.

System: adult C. triangulifer
Assay: Chlordane residue (body burden), relative composition and metabolism in adult C. triangulifer by ECNI-MS
Assay type: in vivo, Centroptilum triangulifer (WCC 2 clone)
Conditions: for metabolism by C. triangulifer: 4.3 μg/l technical chlordane; for amount of cis- and trans-chlordane relative to the nonachlors in C. triangulifer: compared to original distribution in technical chlordane; for relative composition of principal chlordane components or metabolites in mayflies: reared at 4.3 μg/l chlordane; for bioaccumulation in C. triangulifer: in vivo
Experimental: Surviving C. triangulifer individuals from the various controls and treatment groups were collected daily as subimagos (pre-adults) from emergence cages. Most subimagos emerging from a given vessel were immediately killed, measured, dried, and weighed. The viability of eggs obtained from females that had been chronically exposed as larvae to the various control and treatment conditions was also assessed. Thus, a few subimagos from certain treatments were kept alive for 24 h (n=8, 5, 8, 6, 10, and 6 for the 4.3, 9.4, 15.4, 27.4, and 56.3 μg/l and control groups, respectively), during which time they molted to the adult stage and were allowed to oviposit into individual glass jars for assessing hatch success as described above. A few adults from the 4.3 μg/l group were frozen intact at […] for later analysis for chlordane residue by electron capture negative ionization mass spectrometry (ECNI-MS). Chiordane residue in adults reared as larvae in 0.005, 0.05, and 0.5 μg/l treatments was also determined.
Chlordane was extracted from water samples by liquid-liquid extraction in a separatory funnel with three aliquots of hexane. PCB204 (2,2',3,4,4',5,6,6'-octachlorobiphenyl) was added as a surrogate standard before extraction. Each hexane aliquot was rinsed into the plastic sample bottle after transfer of the water sample and before its addition to the separatory funnel containing the water sample to ensure removal of chlordane adsorbed on the walls. The three hexane aliquots were combined and evaporated with a rotary evaporator and then further evaporated down to 100 μl under nitrogen for the final step. Chlordane components and metabolites were quantified from the relative responses of the surrogate standard and the authentic standards of heptachlor; trans- and cis-chlordane; trans- and cis-nonachlor; and the two metabolites, heptachlor epoxide and oxychlordane (n.b. cis-nonachlor was estimated from the response factor for trans-nonachlor). Adult body burdens and water concentrations of chlordane residue were calculated by comparison of the component areas with that of the surrogate standard to correct for losses during extraction and purification.
Adult mayflies from a given replicate vessel per treatment were dried and combined in lots of five to thirteen organisms for extraction and analysis. The mayflies were ground in 0.5 ml methanol after addition of the surrogate standard PCB204 and extracted by sonication with two 10 ml aliquots of a 1:1 methanol:methylene chloride mixture. Extracts were filtered through pasteur pipettes loaded with approximately 1.0 g of Na2 SO4 and clean glass wool. Chlordane components and the surrogate standard were separated from other components in the extract on 1% deactivated silica (0.8 g) microcolumns (organochlorines were eluted with 20% methylene chloride in hexane).
Five principal chlordane components and two metabolites (heptachlor, cis- and trans-chlordane, cis- and trans-nonachlor, heptachlor epoxide, and oxychlordane) were identified and quantified by ECNI-MS, using a Hewlett Packard 5988/RTE-A mass spectrometer equipped with a Hewlett Packard 5890 GC. Instrumental conditions were: GC -0.25 mm, 30 m DB-5 column (J & W Scientific) held at 60° C. for 2 min, then ramped to 180° C. at 20°/min, to 230° C. at 2°/min, to 280° C. at 10°/min, and then held at 280° C. for 10 min; MS-CH4 pressure 0.45 torr, source temperature 100° C.

SMILES	metabolism by C. triangulifer	amount of cis- and trans-chlordane relative to the nonachlors in C. triangulifer	relative composition of principal chlordane components or metabolites in mayflies [%]	bioaccumulation in C. triangulifer	ratio of trans-nonachlor to cis-nonachlor in C. triangulifer (range)
ClC1=C(Cl)[C@]2(Cl)[C@@H]3C[C@H](Cl)[C@@H](Cl)[C@@H]3[C@@]1(Cl)C2(Cl)Cl (relative stereo) [trans-chlordane]	metabolized in part to oxychlordane; also recorded: capable of metabolizing or excreting both isomers equally	Reduced quantities	5±3		
ClC1=C(Cl)C2(Cl)C3C(Cl)C=CC3C1(Cl)C2(Cl)Cl (stereo not drawn) [heptachlor]	completely metabolize				
ClC1=C(Cl)[C@]2(Cl)[C@H]3[C@H]([C@@H](Cl)[C@]4(Cl)O[C@H]34)[C@@]1(Cl)C2(Cl)Cl [oxychlordane]			21±13	clear trend for the C. triangulifer mayfly to bioaccumulate	
ClC1=C(Cl)[C@]2(Cl)[C@@H]3C[C@@H](Cl)[C@@H](Cl)[C@@H]3[C@@]1(Cl)C2(Cl)Cl (relative stereo) [cis-chlordane]	metabolized in part to oxychlordane; also recorded: capable of metabolizing or excreting both isomers equally	Reduced quantities	4±3		
ClC1=C(Cl)[C@]2(Cl)[C@@H]3[C@@H](Cl)[C@H](Cl)[C@@H](Cl)[C@@H]3[C@@]1(Cl)C2(Cl)Cl [trans-nonachlor]	poorly metabolized		45±11	clear trend for the C. triangulifer mayfly to bioaccumulate	6.2-8.6
ClC1=C(Cl)[C@]2(Cl)[C@@H]3[C@@H](Cl)[C@@H](Cl)[C@@H](Cl)[C@@H]3[C@@]1(Cl)C2(Cl)Cl [cis-nonachlor]	poorly metabolized		6±2	clear trend for the C. triangulifer mayfly to bioaccumulate	
ClC1=C(Cl)C2(Cl)C3C4OC4C(Cl)C3C1(Cl)C2(Cl)Cl (stereo not drawn) [heptachlor epoxide]			18±7	clear trend for the C. triangulifer mayfly to bioaccumulate	
